Where “and” joins values, the source holds several entries; their conditions need not be identical. Equal entries are not always repeated.
Details: Liquid, Vibrating tube method

FC(C(F)(F)F)C(F)(F)F [1,1,1,2,3,3,3-heptafluoropropane]
Details | mass density
283.14 K, 31470 kPa | 1570.9 kg/m3
283.14 K, 31923 kPa | 1572.2 kg/m3
283.14 K, 31954 kPa | 1572.2 kg/m3
283.14 K, 31990 kPa | 1572.3 kg/m3
283.14 K, 32053 kPa | 1572.5 kg/m3
283.14 K, 32196 kPa | 1572.9 kg/m3
283.14 K, 32239 kPa | 1573 kg/m3
283.14 K, 32276 kPa | 1573 kg/m3
283.14 K, 32317 kPa | 1573.1 kg/m3
283.14 K, 32360 kPa | 1573.2 kg/m3
283.14 K, 32439 kPa | 1573.5 kg/m3
283.14 K, 32476 kPa | 1573.6 kg/m3
283.14 K, 32513 kPa | 1573.7 kg/m3
283.14 K, 32546 kPa | 1573.8 kg/m3
283.14 K, 32585 kPa | 1573.8 kg/m3
283.14 K, 32618 kPa | 1574 kg/m3
283.14 K, 32651 kPa | 1574 kg/m3
283.14 K, 32687 kPa | 1574.2 kg/m3
283.14 K, 32724 kPa | 1574.4 kg/m3
283.14 K, 32761 kPa | 1574.4 kg/m3
283.14 K, 32793 kPa | 1574.4 kg/m3
283.14 K, 32841 kPa | 1574.7 kg/m3
283.14 K, 32986 kPa | 1574.9 kg/m3
283.14 K, 33019 kPa | 1575.2 kg/m3
283.14 K, 33051 kPa | 1575.2 kg/m3
283.14 K, 33098 kPa | 1575.1 kg/m3
283.14 K, 33128 kPa | 1575.4 kg/m3
283.14 K, 33158 kPa | 1575.5 kg/m3
283.14 K, 33205 kPa | 1575.6 kg/m3
283.14 K, 33237 kPa | 1575.7 kg/m3
283.14 K, 33312 kPa | 1575.9 kg/m3
283.15 K, 461 kPa | 1449.6 kg/m3 and 1449.7 kg/m3 and 1449.5 kg/m3
283.15 K, 462 kPa | 1449.6 kg/m3 and 1449.5 kg/m3 and 1449.7 kg/m3
283.15 K, 463 kPa | 1449.6 kg/m3
283.15 K, 465 kPa | 1449.6 kg/m3
283.15 K, 485 kPa | 1449.7 kg/m3
283.15 K, 513 kPa | 1449.9 kg/m3
283.15 K, 538 kPa | 1450.1 kg/m3
283.15 K, 571 kPa | 1450.2 kg/m3
283.15 K, 601 kPa | 1450.5 kg/m3
283.15 K, 635 kPa | 1450.8 kg/m3
283.15 K, 666 kPa | 1450.9 kg/m3
283.15 K, 696 kPa | 1451.1 kg/m3
283.15 K, 723 kPa | 1451.2 kg/m3
283.15 K, 745 kPa | 1451.3 kg/m3
283.15 K, 785 kPa | 1451.6 kg/m3
283.15 K, 825 kPa | 1451.8 kg/m3
283.15 K, 870 kPa | 1452 kg/m3
283.15 K, 902 kPa | 1452.3 kg/m3
283.15 K, 2647 kPa | 1462.4 kg/m3
283.15 K, 2695 kPa | 1462.6 kg/m3
283.15 K, 2733 kPa | 1462.7 kg/m3
283.15 K, 2772 kPa | 1462.9 kg/m3
283.15 K, 2817 kPa | 1463.3 kg/m3
283.15 K, 2855 kPa | 1463.4 kg/m3
283.15 K, 2910 kPa | 1463.7 kg/m3
283.15 K, 2943 kPa | 1464 kg/m3
283.15 K, 2982 kPa | 1464.2 kg/m3
283.15 K, 3012 kPa | 1464.3 kg/m3
283.15 K, 3043 kPa | 1464.5 kg/m3
283.15 K, 3065 kPa | 1464.6 kg/m3
283.15 K, 3097 kPa | 1464.7 kg/m3
283.15 K, 3117 kPa | 1464.9 kg/m3
283.15 K, 3653 kPa | 1467.8 kg/m3
283.15 K, 3681 kPa | 1467.9 kg/m3
283.15 K, 3713 kPa | 1468.1 kg/m3
283.15 K, 3737 kPa | 1468.2 kg/m3
283.15 K, 3764 kPa | 1468.5 kg/m3
283.15 K, 3789 kPa | 1468.4 kg/m3
283.15 K, 3818 kPa | 1468.6 kg/m3
283.15 K, 3851 kPa | 1468.8 kg/m3
283.15 K, 3880 kPa | 1469 kg/m3
283.15 K, 3906 kPa | 1469.1 kg/m3
283.15 K, 3935 kPa | 1469.3 kg/m3
283.15 K, 3961 kPa | 1469.4 kg/m3
283.15 K, 4806 kPa | 1473.8 kg/m3
283.15 K, 4895 kPa | 1474.2 kg/m3
283.15 K, 4922 kPa | 1474.4 kg/m3
283.15 K, 4945 kPa | 1474.4 kg/m3
283.15 K, 5000 kPa | 1474.7 kg/m3
283.15 K, 5032 kPa | 1474.9 kg/m3
283.15 K, 5060 kPa | 1475.1 kg/m3
283.15 K, 5088 kPa | 1475.3 kg/m3
283.15 K, 5115 kPa | 1475.2 kg/m3
283.15 K, 5147 kPa | 1475.5 kg/m3
283.15 K, 5176 kPa | 1475.7 kg/m3
283.15 K, 5204 kPa | 1475.8 kg/m3
283.15 K, 5232 kPa | 1476 kg/m3
283.15 K, 5260 kPa | 1476.1 kg/m3
283.15 K, 5284 kPa | 1476.2 kg/m3
283.15 K, 5323 kPa | 1476.4 kg/m3
283.15 K, 5350 kPa | 1476.5 kg/m3
283.15 K, 5373 kPa | 1476.8 kg/m3
283.15 K, 5402 kPa | 1476.8 kg/m3
283.15 K, 5425 kPa | 1477 kg/m3
283.15 K, 5522 kPa | 1477.4 kg/m3
283.15 K, 5563 kPa | 1477.6 kg/m3
283.15 K, 5594 kPa | 1477.8 kg/m3
283.15 K, 5634 kPa | 1478 kg/m3
283.15 K, 5666 kPa | 1478.1 kg/m3
283.15 K, 6204 kPa | 1480.7 kg/m3
283.15 K, 6271 kPa | 1480.9 kg/m3
